BindingDB's records for doi:10.1016/j.ejmech.2012.12.014 (Universitat De Barcelona, 2013)
pIC50: −log10 of the molar value.

How the values were obtained:
[1] = target: T1, Glycogen synthase kinase-3 beta (Homo sapiens, UniProt P49841); test: (§1) Inhibition of human recombinant GSK-3beta using GS2 peptide as substrate and [gamma33P]-ATP after 30 mins by scintillation counting
[2] = target: T1, Glycogen synthase kinase-3 beta; test: as §1; remark: listed apart in the source
[3] = target: T2, Cyclin-dependent kinase 1 (Homo sapiens, UniProt P06493); test: (§2) Inhibition of human recombinant CDK1 using histone H1 as substrate and [gamma33P]-ATP after 15 mins by scintillation counting
[4] = target: T3, Cyclin-dependent kinase 5 (Homo sapiens, UniProt Q00535); test: (§3) Inhibition of human recombinant CDK5 using histone H1 as substrate and [gamma33P]-ATP after 20 mins by scintillation counting
[5] = target: T4, Glycogen synthase kinase-3 alpha (Homo sapiens, UniProt P49840); test: (§4) Inhibition of human recombinant GSK-3alpha using GS2 peptide as substrate and [gamma33P]-ATP after 12 mins by scintillation counting
[6] = target: T2, Cyclin-dependent kinase 1; test: as §2; remark: listed apart in the source
[7] = target: T3, Cyclin-dependent kinase 5; test: as §3; remark: listed apart in the source
[8] = target: T4, Glycogen synthase kinase-3 alpha; test: as §4; remark: listed apart in the source

T1 sequence (P49841 whole entry): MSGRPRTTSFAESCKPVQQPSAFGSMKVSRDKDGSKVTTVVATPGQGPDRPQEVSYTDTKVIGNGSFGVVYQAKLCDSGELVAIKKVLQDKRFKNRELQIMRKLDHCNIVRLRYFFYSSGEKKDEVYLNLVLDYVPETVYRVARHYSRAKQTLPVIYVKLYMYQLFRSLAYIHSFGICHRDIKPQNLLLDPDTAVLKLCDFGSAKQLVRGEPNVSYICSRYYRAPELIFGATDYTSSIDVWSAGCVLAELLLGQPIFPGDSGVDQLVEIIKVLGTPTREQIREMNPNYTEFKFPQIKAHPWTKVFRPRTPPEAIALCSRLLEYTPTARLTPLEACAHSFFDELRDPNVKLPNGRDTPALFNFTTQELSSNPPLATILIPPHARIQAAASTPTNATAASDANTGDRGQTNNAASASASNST
T4 sequence (P49840 whole entry): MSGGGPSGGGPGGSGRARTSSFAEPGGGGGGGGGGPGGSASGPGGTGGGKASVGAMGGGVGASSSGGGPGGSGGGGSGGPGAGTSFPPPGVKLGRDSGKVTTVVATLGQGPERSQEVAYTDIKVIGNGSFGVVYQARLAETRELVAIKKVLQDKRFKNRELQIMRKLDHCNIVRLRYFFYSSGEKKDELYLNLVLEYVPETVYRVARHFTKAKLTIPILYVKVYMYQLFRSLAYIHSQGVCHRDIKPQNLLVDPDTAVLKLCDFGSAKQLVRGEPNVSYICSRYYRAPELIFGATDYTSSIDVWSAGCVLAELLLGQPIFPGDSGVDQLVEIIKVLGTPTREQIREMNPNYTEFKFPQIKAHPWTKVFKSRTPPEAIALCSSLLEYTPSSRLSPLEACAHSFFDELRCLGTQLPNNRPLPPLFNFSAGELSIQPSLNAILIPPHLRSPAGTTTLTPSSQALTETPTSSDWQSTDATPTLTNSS
T2 sequence (P06493 whole entry): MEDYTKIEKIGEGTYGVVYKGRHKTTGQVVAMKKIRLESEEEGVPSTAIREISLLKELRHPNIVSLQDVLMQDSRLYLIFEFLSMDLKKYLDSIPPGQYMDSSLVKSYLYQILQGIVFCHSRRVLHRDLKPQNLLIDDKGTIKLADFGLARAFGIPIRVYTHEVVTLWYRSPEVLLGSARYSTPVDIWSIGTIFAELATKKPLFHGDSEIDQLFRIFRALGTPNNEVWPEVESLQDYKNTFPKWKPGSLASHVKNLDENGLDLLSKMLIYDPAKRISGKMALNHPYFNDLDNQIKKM
T3 sequence (Q00535 whole entry): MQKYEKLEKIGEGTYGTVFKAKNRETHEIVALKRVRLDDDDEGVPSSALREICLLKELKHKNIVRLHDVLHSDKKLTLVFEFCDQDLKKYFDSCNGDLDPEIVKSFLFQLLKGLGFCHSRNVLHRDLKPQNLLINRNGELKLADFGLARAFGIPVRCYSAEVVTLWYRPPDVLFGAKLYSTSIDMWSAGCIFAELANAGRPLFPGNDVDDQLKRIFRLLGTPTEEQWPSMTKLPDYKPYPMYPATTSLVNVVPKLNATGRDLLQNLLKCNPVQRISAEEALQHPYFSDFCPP

SMILES | pIC50 [1] | pIC50 [2] | pIC50 [3] | pIC50 [4] | pIC50 [5] | pIC50 [6] | pIC50 [7] | pIC50 [8]
CCCCCCCC(=O)OC[C@H](O)[C@H]1OC(=O)C(O)C1=O (some centres not stated) | < 4.30 | < 4.30 |  |  |  |  |  | 
C/C(=C\C=C\C(C)CC/C=C(\C)C[C@H]1OC(=O)C(C)C1=O)CCCc1ccoc1 (some centres not stated) [PALINURIN] | 5.72 | 5.72 | > 4.00 | > 4.60 | 5.79 | > 4.00 | > 4.60 | 5.79
C/C(=C/CC[C@@H](C)C=C1OC(=O)C(C)C1=O)CCCc1coc(Cc2ccoc2)c1 (some centres not stated) [Ircinin 2] | 5.63 | 5.63 |  |  |  |  |  | 
